Results as given in US9006285B2, “Therapeutic agent for hepatitis C” (Mochida Pharmaceutical Co., Ltd., priority 2008, dated 2015).

How the values were obtained:
[1] = test system: HCV replication in OR6 cells; details: cited from earlier work
[2] = test system: hepatitis C virus (HCV); test: EPA-E before and during interferon therapy in hepatitis C with or without hepatic steatosis (Example 2-2); assay type: in vivo, human; details: 1800 to 2700 mg/day oral at least one month before and during interferon therapy
Experimental: The patients to be tested are divided into two groups, EPA-E administered group and EPA-E non-administered group. In addition, a fatty liver group and a non-fatty liver group are set up in each of the EPA-E administered group and the EPA-E non-administered group by investigating the degree of hepatic fatty change through diagnostic imaging or hepatobiopsy. To the EPA-E administered group, 1800 to 2700 mg/day of EPA-E is orally administered for at least one month before interferon therapy. To the EPA-E non-administered group, none of EPA and derivatives thereof is administered during the testing period. Subsequently, interferon therapy is conducted on each group for three months or longer. The dose, dosage interval, dosage period, and the like of interferon are specified as appropriate to the condition of a patient, side effects of the interferon, and so forth. After the termination of interferon administration, the alanine aminotransferase (ALT) activity and the HCV-RNA level are measured (the latter by a COBAS AMPLICOR MONITOR assay), and a hepatohistological test is conducted. It should be noted that EPA-E is also administered to the EPA-E group during the administration of interferon.

[3] = test system: HCV replication in Ava5 cells; details: cited from earlier work
[4] = in vivo; cited from earlier work
[5] = test system: blood HCV-RNA level (hepatitis C virus); test: Interferon therapy (interferon and ribavirin) with or without EPA-E in hepatitis C patients, by blood triglyceride level (Example 3); assay type: in vivo, human; details: hepatitis C complicated with hypertriglyceridemia; interferon therapy along with oral 1800 to 2700 mg/day EPA-E
From the text: The determination of the response rate to interferon therapy needs a follow-up survey for six months or longer after the completion of the therapy, that is to say, is time-consuming. The response rate can be determined earlier by using a leading index as a surrogate. For instance, the response rate to interferon therapy is expected to be increased if the reduction in viral load (reduction in blood HCV-RNA level) is significant three days after the start of the therapy. Accordingly, the reduction in viral load three days after the start of interferon therapy can be used as a leading index for the determination of the response rate to the interferon therapy. The reduction in viral load is preferably not less than 2.0 as the difference between the common logarithm value of the blood HCV-RNA level before the start of interferon therapy and the common logarithm value of the blood HCV-RNA level three days after the start of interferon therapy.
On the patients having hepatitis C complicated with hypertriglyceridemia, the interferon therapy was then conducted along with the oral administration of 1800 to 2700 mg/day of EPA-E.
As a result, the reduction in viral load was 2.375 on average, that is to say, EPA-E improved the effectiveness of the interferon therapy in the patients having hepatitis C complicated with hypertriglyceridemia. […]

[6] = healthy male adult, cited from earlier work
[7] = test system: hepatitis C virus (HCV); test: Response rate to repeated interferon therapy after EPA-E in non-responders or relapsers (Example 2-1); assay type: in vivo, human; details: 1800 to 2700 mg/day oral for three months before repeated interferon therapy; six months after completion of interferon therapy
Experimental: Employing those hepatitis C patients as targets who were determined as non-responders or relapsers after interferon therapy, it is confirmed that the response rate to the interferon therapy is improved in re-treatment cases by the administration of EPA-E.
The patients to be tested are divided into two groups, namely, EPA-E administered group and EPA-E non-administered group. To the EPA-E administered group, 1800 to 2700 mg/day of EPA-E is orally administered for three months after the patients were determined as non-responders or relapsers with respect to the interferon therapy. To the EPA-E non-administered group, none of EPA and derivatives thereof is administered during the testing period. Subsequently, the interferon therapy is conducted again on both groups. The dose, dosage interval, dosage period, and the like of interferon are specified as appropriate to the condition of a patient, side effects of the interferon, and so forth. The ratio at which the patients became negative for the HCV-RNA level is calculated six months after the completion of interferon therapy.
It is confirmed that the ratio as calculated is higher in the EPA-E administered group than the EPA-E non-administered group.

[8] = test system: blood HCV-RNA level (hepatitis C virus); test: Time to negativity for the blood HCV-RNA level on repeated interferon therapy after EPA-E (Example 2-3); assay type: in vivo, human; details: 1800 to 2700 mg/day oral at least two weeks before repeated interferon therapy
Experimental: Employing those hepatitis C patients as targets who were determined as non-responders or relapsers after interferon therapy, it is confirmed that the time at which the patients become negative for the blood HCV-RNA level is allowed to be earlier by the administration of EPA-E.
The patients to be tested are divided into two groups, EPA-E administered group and EPA-E non-administered group. To the EPA-E administered group, 1800 to 2700 mg/day of EPA-E is orally administered for at least two weeks after the patients were determined as non-responders or relapsers with respect to the interferon therapy. To the EPA-E non-administered group, none of EPA and derivatives thereof is administered during the testing period. Subsequently, the interferon therapy is conducted again on both groups. The dose, dosage interval, dosage period, and the like of interferon are specified as appropriate to the condition of a patient, side effects of the interferon, and so forth. The blood HCV-RNA level is measured in course of the administration of interferon. Data on the time after the start of interferon administration at which the patients became negative for the blood HCV-RNA level are collected to comparison between the two groups.
For instance, the ratio of the patients becoming negative for the blood HCV-RNA level within 12 weeks after the start of interferon administration is increased.

[9] = test system: hepatitis C virus (HCV); test: EPA-E in interferon non-responders having hepatitis C complicated with hepatic steatosis (Example 1); assay type: in vivo, human; details: 2700 mg/day oral, third and sixth month, no interferon
Experimental: To the patients from whom interferon was withdrawn for about one month after they were determined to be unresponsive to interferon therapy, 2700 mg/day of EPA-E is orally administered for three months or longer. During the testing period, it is forbidden to administer any new drug considered to effect change in hepatic function. Also forbidden is administration of interferon. If the alanine aminotransferase (ALT) activity and/or the HCV-RNA level is quantified (the latter by a COBAS AMPLICOR MONITOR assay) before EPA-E administration, as well as on the third month and the sixth month of EPA-E administration, and the values as obtained are compared with those before administration, it is confirmed that the ALT activity and/or the HCV-RNA level is reduced by not less than 10%.
Instead of the ALT activity, improvement in liver tissue finding, reduction in lipid droplet, or reduction in proportion of 18:1 fatty acids (oleic acid in particular) among liver triglyceride fractions may be confirmed.

[10] = test system: hepatitis C virus (HCV); details: hepatitis C patients; cited from earlier work
[11] = in one week of continuous oral administration

Compound: CC/C=C\C/C=C\C/C=C\C/C=C\C/C=C\C/C=C\CCC(=O)O [DHA, docosahexaenoic acid]
- HCV replication-inhibiting effect independent of cytotoxicity [1]: only linoleic acid had the HCV replication-inhibiting effect

Compound: CC/C=C\C/C=C\C/C=C\C/C=C\C/C=C\CCCC(=O)O [EPA, icosapentaenoic acid]
- effect of interferon and EPA in combination versus interferon alone on hepatitis C complicated with hepatic steatosis [2]: greater effect
- HCV replication-inhibiting effect independent of cytotoxicity [1]: only linoleic acid had the HCV replication-inhibiting effect
- HCV replication [3]: inhibited HCV replication
- anaemia during combination therapy with interferon and ribavirin [4]: can prevent anaemia

Compound: CC/C=C\C/C=C\C/C=C\C/C=C\C/C=C\CCCC(=O)OCC [EPA-E, ethyl icosapentate]
- reduction in viral load (difference between common logarithm values of the blood HCV-RNA level), on average [5]: 2.375
- effect on hepatitis C complicated with hepatic steatosis versus not complicated with hepatic steatosis ([2]; ALT, HCV-RNA, hepatohistological test): greater
- time at which the plasma EPA level reaches a plateau ([6]; continuous oral administration): one week
- plasma EPA/AA (arachidonic acid) ratio [6, 11]: higher than 1.0
- plasma EPA/AA relative to that before administration [6, 11]: about two times
- ratio at which patients became negative for the HCV-RNA level, versus EPA-E non-administered group [7]: higher
- ratio of patients becoming negative for the blood HCV-RNA level within 12 weeks after start of interferon administration [8]: increased
- time at which patients become negative for the blood HCV-RNA level, versus EPA-E non-administered group [8]: shows a tendency to be earlier
- reduction of HCV-RNA level compared with before administration ([9]; COBAS AMPLICOR MONITOR assay): not less than 10%
- reduction of ALT activity compared with before administration [9]: not less than 10%

Compound: CCCCC/C=C\C/C=C\C/C=C\C/C=C\CCCC(=O)O [arachidonic acid]
- HCV replication-inhibiting effect independent of cytotoxicity [1]: only linoleic acid had the HCV replication-inhibiting effect
- HCV replication [3]: inhibited HCV replication

Compound: CCCCC/C=C\C/C=C\CCCCCCCC(=O)O [linoleic acid]
- HCV replication-inhibiting effect independent of cytotoxicity [1]: only linoleic acid had the HCV replication-inhibiting effect

Compound: IFN-α
- HCV elimination rate [10]: about 30%
